Experimental data as given in US20230414715A1, “TRAIL COMPOUNDS FOR REDUCING CANCER TREAMENT SIDE EFFECTS” (BROWN UNIVERSITY, priority 2022, published 2023).
Entries after “also recorded” stand apart in the source; their conditions may differ.

Key:
[1] = system: e0771 orthotopic breast tumors in C57B1/6 mice; assay: Orthotopic e0771 breast tumor model with 20 Gy whole-thorax irradiation
Protocol: C57B1/6 female mice (Taconic) were injected with 100,000 cells of murine breast cancer (e0771) in the right second mammary fat pad on day 0 of the experiment. […] Each group (n=3) also received a single whole-thorax x-ray irradiation dose of 20 Gy with shielding of other organs. One group (n=3) received no treatment and no radiation. The long axis and short axis of the tumors were measured using calipers and recorded twice a week. On day 18 all mice were euthanized at a humane endpoint, which was defined by 20% weight loss and/or a tumor volume of 2000 mm^3 (˜10% of body weight). Organs and tumors were harvested from the mice and 600 μL of blood was collected via cardiac puncture for serum cytokine analysis. Once tumors were extracted, they were weighed and measured to determine final volume and weight. Pulse oximeter readings were taken initially before radiation treatment and before sacrifice 9 days post-radiation (MouseSTAT Jr. Pulse Oximeter, Kent Scientific). When mice were under anesthesia the sensor of the MouseSTAT Jr. was placed on the hind right paw for 30 seconds. The highest and lowest values shown by the pulse oximeter during this time were recorded and then averaged together. The mean of all the averages per treatment group was then calculated.

[2] = system: mRNA from mouse lung tissue; assay: NanoString nCounter PanCancer Immune Profiling panel, mRNA from mouse lung tissue; assay type: in vivo
Protocol: One hour before radiation mice were grouped into control or given 10 mg/kg of TLY012 via IP injection (n=3/gender/treatment). Mice were treated and weighed twice a week up until 11 days post-radiation when all mice were euthanized.
Rodent sacrifice was performed following anesthetization with 100 mg/kg ketamine and 10 mg/kg xylazine administered intraperitoneally. ˜400-600 μL blood was first collected throughcardiac puncture with a 26G ⅝″ needle through the intercostal space into the left ventricle. […] 1 mL of 2 mg/mL EDTA in PBS was injected through the right ventricle to perfuse the lungs, after which the lungs were excised, washed further in PBS, submerged in RNAlater (Sigma-Aldrich, #R0901, Missouri, USA), and flash frozen in liquid nitrogen.
Frozen lung tissue was stored long-term at −80° C. Thawing was performed over 16 hours at 4° C. Tissue homogenization was performed with Precellys Lysing Kit (Cayman Chemical Company, #16859, Michigan, USA) and a Bulley Blender Homogenizer (Next Advance, #G14-G15) prior to RNA extraction with QlAgen RNeasy kit (Qiagen, #74104, Hilden, Germany) and cleaned up with QIAgen RNeasy MinElute Cleanup kit (Qiagen, #74204, Hilden, Germany). Quality and concentration were verified by Nanodrop. Extracted RNA samples were gene expression profiled by NanoString nCounter PanCancer Immune Profiling Panel (NanoString Technologies, #XTCSO-MIP1-12, Seattle, WA) according to the manufacturer's instructions.
Nanostring data was analyzed in nSolver Advanced Analysis Software and ROSALIND. Raw data was uploaded to nSolver for automated normalization, background subtraction, and quality control (QC) check. All samples passed QC. Control mice and mice treated with TLY012 lung samples were used to construct two groups to which an unpaired t-test was run to generate the data in the volcano plot that was created in ROSALIND (FIG. 5). Differential expression was determined with p-values and Benjamini-Yekutieli adjusted p-values. Pathway scores are generated in nSolver as a summarization of expression level changes of biologically related groups of genes. Pathway scores are derived from the first Principal Components Analysis (PCA) scores (1st eigenvectors) for each sample based on the individual gene expression levels for all the measured genes within a specific pathway. The cell type score itself is calculated as the mean of the log2 expression levels for all the probes included in the final calculation for that specific cell type.

[3] = system: TRAIL-/- mice; assay: Radiation pneumonitis after whole-thorax x-ray irradiation, H&E of lung, TRAIL-null mice; assay type: in vivo, mouse; settings: TRAIL-/- male or female mice, 20 Gy thoracic irradiation, two weeks treatment, FIG. 2A, B
Protocol: Animal studies were carried out at Brown University facilities with approval from Brown University IACUC. C57B1/6 mice (Taconic), mice with bi-allelic loss of TRAIL Death Receptor-(DR5-/-) in a C57B1/6 background, and mice with bi-allelic loss of TRAIL (TRAIL -/-) in a C57B1/6 background were given a single whole-thorax x-ray (Philips RT250) irradiation dose of 20 Gy with shielding of other organs. 8-15-week-old male and female mice of each genotype were used. […] Treatment was continued for two weeks, where TLY012 was administered twice a week and ONC201 was administered once a week. For each genetic background, two mice received a control PO, two mice received TLY012 IP, and two mice received ONC201 PO. Mice were weighed twice a week, and 13 days post-irradiation all mice were euthanized. Organs were harvested from the mice and 600 μL of blood was collected via cardiac puncture for serum cytokine analysis. Organs were preserved in 10% formalin then embedded in paraffin and sectioned at a distance of 5 μm. […] TRAIL-/- female mice were also subjected to a survival study with a single whole-thorax radiation doses of 15 Gy or 18 Gy treated with the same regimen of TLY012 or control (n=2/radiation dose/treatment) (FIG. 3B). […]

[4] = system: DR5-/- mice; assay: Radiation pneumonitis after whole-thorax x-ray irradiation, H&E of lung, DR5-null mice; assay type: in vivo, mouse; settings: 20 Gy
Protocol: However, before embarking on the planned experiment, we decided to perform a preliminary, short-term treatment feasibility experiment to ensure some mouse survival after 20 Gy of thoracic irradiation (FIG. 1B). The preliminary experiment was performed with WT and DR5-null mice that were irradiated with 20 Gy, and this was followed by either weekly doses of TIC10/ONC201 (100 mg/kg for total of two doses) or twice a week doses of TLY012 (10 mg/kg for total of four doses) for 2 weeks.
Animal studies were carried out at Brown University facilities with approval from Brown University IACUC. C57B1/6 mice (Taconic), mice with bi-allelic loss of TRAIL Death Receptor-(DR5-/-) in a C57B1/6 background, and mice with bi-allelic loss of TRAIL (TRAIL -/-) in a C57B1/6 background were given a single whole-thorax x-ray (Philips RT250) irradiation dose of 20 Gy with shielding of other organs. 8-15-week-old male and female mice of each genotype were used. […] Treatment was continued for two weeks, where TLY012 was administered twice a week and ONC201 was administered once a week. For each genetic background, two mice received a control PO, two mice received TLY012 IP, and two mice received ONC201 PO. Mice were weighed twice a week, and 13 days post-irradiation all mice were euthanized. Organs were harvested from the mice and 600 μL of blood was collected via cardiac puncture for serum cytokine analysis. […]

[5] = all mice, treated versus control
[6] = lung, 20 Gy, relative to control

Substance: TLY012: N-terminal PEGylated recombinant human TRAIL; PEGylated trimeric TRAIL formulation
- effect on anti-tumor efficacy of radiation (tumor weight and volume) ([1]; 20 Gy on day 9, treatment days 9, 12, 16, sacrifice day 18, FIG. 6B, C): no evidence that ONC201, TLY012 or their combination reduced efficacy of treatment
- alveolar-wall thickness (H&E) ([1]; 9 days post irradiation): reduction
- lung inflammation (H&E) ([1]; 9 days post irradiation): decreased inflammation
- oxygen saturation (pulse oximetry) ([1]; 9 days post-radiation, versus irradiated mice without further treatment, FIG. 6D): more conserved; also recorded: partially rescued
- CCL22/MDC levels ([1]; irradiated tumor-bearing mice, versus irradiated control, FIG. 6E): significant decrease; also recorded: reduction; also recorded: Reduced
- rescue from radiation induced pneumonitis ([1]; tumor-bearing mice, 20 Gy): more potent by TLY012 than with ONC201
- genes with statistically significant differential expression ([2]; TRAIL-/- mice, 20 Gy, treated versus control): 16
- “Antigen Processing” pathway score [2, 5]: significant increases
- “Interferon” pathway score [2, 5]: significant increases
- “Antigen Processing” pathway score ([2]; female cohort): significant increases
- “Basic Cell Functions” pathway score ([2]; female cohort): decrease
- “Dendritic Cell Functions” pathway score ([2]; female cohort): significant increases
- “MHC” pathway score ([2]; female cohort): significant increases
- BCL6 mRNA [2, 6]: downregulated
- CCL6 mRNA [2, 6]: upregulated
- DOCKS mRNA [2, 6]: downregulated
- FOXJ1 mRNA [2, 6]: downregulated
- H2-Q2 mRNA [2, 6]: downregulated
- HERC6 mRNA [2, 6]: upregulated
- IKZF2 mRNA [2, 6]: downregulated
- IL1RL2 mRNA [2, 6]: upregulated
- KLRA7 mRNA [2, 6]: upregulated
- MAPK8 mRNA [2, 6]: downregulated
- PTGS2 mRNA [2, 6]: downregulated
- RAET1A mRNA [2, 6]: downregulated
- RELB mRNA [2, 6]: upregulated
- RRAD mRNA [2, 6]: downregulated
- TMEM173 mRNA [2, 6]: upregulated
- TNFSF10 mRNA [2, 6]: upregulated
- rescue from radiation pneumonitis [3]: rescued
- rescue from radiation pneumonitis ([4]; DR5-/- mice, FIG. 2A, B): did not observe rescue
- protection from pneumonitis ([4]; DR5-null mice, preliminary experiment, 2 weeks treatment, FIG. 1C): lack of protection
